The supplement of paper PMC10307832

Columns and labels:
Experiment in all cases: relative viability (nuclei count vs DMSO), 5 days (fraction); higher = more cells survive
[1] = compound: COC1=CC=C(C=C1)CN2C=CC3=C2C=C(C=C3)C(=O)NO + CC(=O)Nc1cccc(-n2c(=O)n(C3CC3)c(=O)c3c(Nc4ccc(I)cc4F)n(C)c(=O)c(C)c32)c1 [Trametinib] (partner 0.02 µM)
Outline: (§1)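 Medians of duplicate plates are given as relative viability. That measure is the nuclei count in treated wells divided by the count in vehicle wells. Counts were taken on 4× images of lung cancer cell lines in 1536-well plates, 5 days after pin-tool dosing the day after seeding with one drug alone or a fixed anchor-drug dose plus five library-drug doses (not always all listed) in √10 steps.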

Veliparib = compound: C[C@]1(c2nc3c(C(N)=O)cccc3[nH]2)CCCN1 [Veliparib]
Outline: (§2)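 Acceptance criteria were a control CV below 25% and at least one doubling per plate. Lung cancer cell lines in 1536-well plates got five library-drug doses (not always all listed) √10 apart by pinning and were left 5 days with no medium change. Viability divides treated-well nuclei by vehicle-well nuclei and is the median across plates. Nuclei were counted by MetaXpress from 4× Hoechst images.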

[2] = compound: COC1=CC=C(C=C1)CN2C=CC3=C2C=C(C=C3)C(=O)NO
Outline: as §2

Veliparib + Navitoclax = compound: C[C@]1(c2nc3c(C(N)=O)cccc3[nH]2)CCCN1 [Veliparib] + CC1(C)CCC(c2ccc(Cl)cc2)=C(CN2CCN(c3ccc(C(=O)NS(=O)(=O)c4ccc(N[C@H](CCN5CCOCC5)CSc5ccccc5)c(S(=O)(=O)C(F)(F)F)c4)cc3)CC2)C1 [Navitoclax] (partner 0.5 µM)
Outline: as §1

Cell Line | relative viability ([1]; first compound 0.08 µM) | relative viability ([1]; first compound 0.253 µM) | relative viability ([1]; first compound 0.8 µM) | relative viability ([1]; first compound 2.53 µM) | relative viability ([1]; first compound 8 µM) | relative viability (Veliparib; 0.02 µM) | relative viability (Veliparib; 0.06325 µM) | relative viability (Veliparib; 0.2 µM) | relative viability (Veliparib; 0.6325 µM) | relative viability (Veliparib; 2 µM) | relative viability ([2]; 0.08 µM) | relative viability ([2]; 0.253 µM) | relative viability ([2]; 0.8 µM) | relative viability ([2]; 2.53 µM) | relative viability ([2]; 8 µM) | relative viability (Veliparib + Navitoclax; first compound 0.02 µM) | relative viability (Veliparib + Navitoclax; first compound 0.06325 µM) | relative viability (Veliparib + Navitoclax; first compound 0.2 µM) | relative viability (Veliparib + Navitoclax; first compound 0.6325 µM) | relative viability (Veliparib + Navitoclax; first compound 2 µM)
NCI-H1648 | 0.413 | 0.42 | 0.461 | 0.583 | 0.438 | 1.08 | 0.94 | 0.738 | 0.944 | 0.81 | 1 | 0.875 | 1.01 | 0.991 | 0.735 | – | – | – | – | –
NCI-H358 | – | 0.165 | 0.153 | 0.15 | 0.112 | 0.762 | 0.856 | 0.924 | 0.941 | 0.94 | – | 0.945 | 1.09 | 0.976 | 0.746 | – | – | – | – | –
IA-LM | – | – | – | – | – | 0.918 | 0.831 | 0.952 | 0.896 | 0.886 | 0.91 | 0.949 | 1.03 | 1.08 | 0.868 | 0.939 | 0.697 | 0.755 | 0.697 | 0.94
201T | 0.769 | 0.733 | 0.773 | 0.743 | 0.701 | 0.901 | 0.926 | 0.959 | 1.11 | 1.01 | 1.02 | 0.987 | 1.05 | 0.993 | 0.942 | 1.21 | 1.21 | 1.17 | 1.19 | 1.15
LOU-NH91 | – | 0.754 | 0.778 | 0.808 | 0.766 | 0.941 | 0.893 | 1.01 | 0.931 | 0.992 | 0.717 | 0.95 | 1 | 0.991 | 0.944 | 0.539 | 0.643 | 0.672 | 0.689 | 0.703
ChaGo-K-1 | – | 0.924 | 0.887 | 0.861 | 0.803 | 0.842 | 0.978 | 0.966 | 0.965 | 0.775 | – | 1.04 | 1.01 | 1 | 0.834 | – | 0.833 | 1.08 | 1.06 | 0.85
NCI-H441 | 0.353 | 0.491 | 0.61 | 0.422 | 0.449 | 1.09 | 0.967 | 0.982 | 0.772 | 0.884 | 0.997 | 1.03 | 1.18 | 1.04 | 0.867 | 0.701 | 0.478 | 0.667 | 0.501 | 0.387
ABC-1 | – | – | – | – | – | – | 0.842 | 0.925 | 0.841 | 0.958 | – | 0.941 | 0.845 | 0.94 | 0.703 | – | – | – | – | –
NCI-H661 | – | 0.634 | 0.611 | 0.533 | 0.457 | 0.963 | 0.918 | 0.945 | 0.929 | 1 | – | 0.981 | 0.96 | 0.958 | 0.892 | – | – | – | – | –
BEN | 0.936 | 1.03 | 0.942 | 0.889 | 0.961 | 0.833 | 0.873 | 0.987 | 0.86 | 0.87 | 1.03 | 0.986 | 0.936 | 0.976 | 0.856 | 0.0726 | 0.0807 | 0.0698 | 0.0678 | 0.0746
UMC-11 | 0.225 | 0.708 | 0.712 | 0.735 | 0.666 | 1.09 | 0.997 | 0.964 | 0.926 | 0.983 | 0.711 | 0.965 | 1.02 | 0.907 | 0.964 | 0.345 | 0.312 | 0.369 | 0.324 | 0.331
NCI-H2023 | 0.478 | 0.594 | 0.474 | 0.589 | 0.48 | 0.853 | 0.939 | 0.919 | 0.85 | 0.928 | 0.908 | 1.02 | 1.02 | 0.949 | 0.87 | 1.04 | 0.948 | 0.922 | 0.926 | 0.943
NCI-H2126 | 0.569 | 0.592 | 0.6 | 0.622 | 0.581 | 0.986 | 0.926 | 0.984 | 0.985 | 0.999 | 0.99 | 1.03 | 1.03 | 1.02 | 0.942 | 0.928 | 0.803 | 0.861 | 0.749 | 0.817
EMC-BAC-2 | 0.629 | – | 0.971 | 0.95 | 0.803 | 1.01 | 0.786 | 1.09 | 1.11 | 0.965 | 0.88 | – | 1.08 | 0.979 | 0.873 | 1.2 | 1.18 | 1.15 | 1.14 | 1.08
NCI-H838 | 0.346 | 0.472 | 0.561 | 0.547 | 0.429 | 1.05 | 0.909 | 0.974 | 0.9 | 1.02 | – | 1.01 | 0.964 | 0.98 | 0.871 | 1.2 | 1.1 | 1.12 | 1.11 | 1.2
NCI-H322M | – | – | 0.493 | 0.495 | 0.485 | – | 0.872 | 1.07 | 0.963 | 0.903 | – | 0.948 | 1.06 | 0.925 | 0.931 | 1.21 | 1.04 | 1.19 | 1.23 | 1.2

Cell Line | relative viability ([1]; first compound 0.08 µM) | relative viability ([1]; first compound 0.253 µM) | relative viability ([1]; first compound 0.8 µM) | relative viability ([1]; first compound 2.53 µM) | relative viability ([1]; first compound 8 µM) | relative viability (Veliparib; 0.02 µM) | relative viability (Veliparib; 0.06325 µM) | relative viability (Veliparib; 0.2 µM) | relative viability (Veliparib; 0.6325 µM) | relative viability (Veliparib; 2 µM) | relative viability ([2]; 0.08 µM) | relative viability ([2]; 0.253 µM) | relative viability ([2]; 0.8 µM) | relative viability ([2]; 2.53 µM) | relative viability ([2]; 8 µM) | relative viability (Veliparib + Navitoclax; first compound 0.02 µM) | relative viability (Veliparib + Navitoclax; first compound 0.06325 µM) | relative viability (Veliparib + Navitoclax; first compound 0.2 µM) | relative viability (Veliparib + Navitoclax; first compound 0.6325 µM) | relative viability (Veliparib + Navitoclax; first compound 2 µM)
HCC-15 | 0.334 | 0.355 | 0.424 | 0.41 | 0.372 | 0.89 | 0.952 | 1.04 | 0.985 | 1.05 | 0.883 | 0.965 | 1.11 | 1.01 | 0.935 | 0.723 | 0.702 | 0.719 | 0.721 | 0.65
NCI-H1395 | – | 1.07 | 1.06 | 0.96 | 0.995 | 0.594 | 0.655 | 0.791 | 0.817 | 0.692 | 0.752 | 0.915 | 0.877 | 0.963 | 0.753 | – | 1.05 | 1.01 | 1.11 | 0.899
NCI-H596 | 0.64 | 0.797 | 0.923 | 0.776 | 0.758 | 0.932 | 0.933 | 0.966 | 0.93 | 0.908 | 0.962 | 1.1 | 1.08 | 0.989 | 0.947 | 1.02 | 0.861 | 1.06 | 0.761 | 0.834
PC-3 [JPC-3] | 0.641 | – | 0.75 | 0.702 | 0.683 | 1 | 0.968 | 1.05 | 1.04 | 1.06 | 1 | 1.03 | 1.11 | 1.08 | 0.968 | 0.742 | 0.77 | 0.801 | 0.749 | 0.734
LCLC-103H | 0.653 | 0.65 | 0.715 | 0.694 | 0.679 | 1 | 0.893 | 0.999 | 1.01 | 0.969 | 1.03 | 1.01 | 1.01 | 0.984 | 0.973 | – | – | – | – | –
NCI-H1703 | – | – | – | – | – | 0.816 | 0.839 | 0.852 | 0.878 | 1.11 | 0.699 | 1.07 | 0.959 | 0.956 | 0.904 | 1.62 | 0.849 | 1.08 | 0.977 | 1.29
EBC-1 | – | – | – | – | – | 1.05 | 0.93 | 0.983 | 0.915 | 1 | 0.71 | 0.931 | 1.04 | 0.987 | 0.923 | 0.508 | 0.405 | 0.487 | 0.334 | 0.407
NCI-H522 | – | 0.812 | 0.678 | 0.767 | 0.64 | 0.947 | 0.958 | 0.912 | 1.07 | 1.04 | – | 0.946 | 0.968 | 0.869 | 0.793 | – | – | – | – | –
NCI-H650 | 1.07 | 0.981 | 1 | 1.03 | 1.04 | 0.765 | 0.799 | 0.834 | 0.783 | 0.731 | 0.903 | 0.834 | 0.888 | 0.949 | 0.891 | – | – | – | – | –
A549 | – | – | – | – | – | 1 | 0.957 | 0.962 | 0.9 | 0.989 | 0.905 | 1.01 | 0.953 | 0.986 | 0.895 | 1.25 | 1.18 | 1.17 | 1.16 | 1.13
NCI-H1563 | – | – | – | – | – | 0.851 | 0.953 | 0.956 | 0.966 | 1.05 | 0.843 | 1.09 | 0.955 | 0.968 | 0.908 | – | – | – | – | –
NCI-H2342 | 0.815 | 0.901 | 0.759 | 0.971 | 0.861 | 0.966 | 0.968 | 0.94 | 0.873 | 0.979 | 0.946 | 0.973 | 0.992 | 0.997 | 0.827 | – | – | – | – | –
NCI-H1623 | – | – | – | – | – | 0.762 | 0.883 | 0.959 | 1.01 | 0.984 | 0.812 | 0.975 | 0.999 | 0.982 | 0.897 | – | – | – | – | –
SW 900 | 0.722 | 0.774 | 0.872 | 0.674 | 0.766 | – | 0.645 | 0.909 | 0.807 | 0.777 | 0.862 | 0.802 | 0.934 | 0.941 | 0.732 | – | – | – | – | –
NCI-H1299 | – | – | – | – | – | 0.993 | 1 | 1.01 | 0.968 | 1.02 | 1.01 | 1.04 | 1.03 | 1.02 | 0.99 | 1.06 | 0.989 | 1.03 | 0.996 | 1.07
Calu-6 | – | – | – | – | – | 1 | 0.968 | 0.935 | 0.905 | 1 | 0.825 | 1.01 | 1.03 | 0.998 | 0.977 | 0.946 | 0.871 | 0.914 | 0.824 | 0.867
